Test results published in US20230000869A1, “NOVEL ALK2 INHIBITORS AND METHODS FOR INHIBITING BMP SIGNALING” (The Brigham and Women's Hospital, Inc., priority 2017, published 2023).
Changes are numbered by the printed parent chain.

What was measured:
ALK2 [1] = molecular target: T1, ALK2 (Mus musculus, UniProt P37172); test: Luciferase reporter gene assay for ALK2 activity (C2C12 BRE-Luc SMAD1/5/8 reporter, BMP6 agonist); assay type: cell-based; settings: BMP6 50 ng/mL
T1 construct: endogenous in cells; host or cells: C2C12-BRE (BRE-Luc reporter line, G418 selection)
T1 sequence (P37172 21-509): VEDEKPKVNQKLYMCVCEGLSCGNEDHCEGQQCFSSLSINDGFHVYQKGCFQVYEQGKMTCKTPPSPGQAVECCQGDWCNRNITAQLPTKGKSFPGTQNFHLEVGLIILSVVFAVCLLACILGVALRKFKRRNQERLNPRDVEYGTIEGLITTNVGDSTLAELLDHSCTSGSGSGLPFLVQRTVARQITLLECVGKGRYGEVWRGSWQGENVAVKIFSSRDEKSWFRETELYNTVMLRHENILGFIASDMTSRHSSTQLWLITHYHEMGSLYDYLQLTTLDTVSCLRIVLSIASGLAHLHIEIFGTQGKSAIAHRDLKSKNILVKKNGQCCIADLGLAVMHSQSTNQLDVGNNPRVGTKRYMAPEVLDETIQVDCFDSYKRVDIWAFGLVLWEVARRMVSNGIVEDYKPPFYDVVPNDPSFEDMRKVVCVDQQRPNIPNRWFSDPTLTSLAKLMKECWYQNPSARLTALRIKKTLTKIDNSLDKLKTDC
Outline: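 TGFβ activity was measured in HEK293T SBE-Luc cells stimulated with 5 ng/mL TGFβ, at compound 10000-30 nM final. ALK2 activity was measured in C2C12 BRE-Luc cells stimulated with 50 ng/mL BMP6, at compound 1000-0.3 nM final. Compound was preincubated 45 min in 2% FBS medium; after ≥18 h agonist exposure, luminescence was read and inhibition expressed as % signal loss versus background-subtracted agonist controls.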

ALK2 [2] = molecular target: T2, ALK2 (Homo sapiens, UniProt Q04771); test: TR-FRET enzymatic assay, ALK2 kinase, 1536-well; assay type: biochemical; settings: for IC50 / ALK2 Span: TR-FRET; for IC50: 10 nM ALK, Ulight topo II substrate 50 nM, ATP 10 uM (Table 1); for ALK2 Span: span of the concentration-response curve
T2 construct: purchased Life technology (Fredrick, Md.) and/or CARNA BIOSCIENCES Inc. (Kobe, Japan)
T2 sequence (Q04771 21-509): T1 sequence (P37172 21-509) with V1M, Q10P, I121L, E162D, S310P
Excerpt: We have developed six ALK kinase enzyme assays for determination of compound activities on ALK1, ALK2, ALK3, ALK4, ALK5 and ALK6. For the assay development, we had tested a number of substrates and assay conditions that led to the final optimized assay protocols with good assay windows with signal to basal (S/B) ratios above 20 fold for all six ALK assays (FIG. 1). In our knowledge, these ALK kinase assays have not been reported elsewhere.
ALK1 and ALK2-ALK6 were obtained from Life technology (Fredrick, Md.) and CARNA BIOSCIENCES Inc. (Kobe, Japan). Ulight-DNA Topoisomerase 2 alpha (Thr-1342) peptide and Europium anti-phospho-DNA Topoisomerase 2 alpha (Thr-1342) antibody was from Perkin Elmer Inc. The kinase buffer was composed of 50 mM HEPES pH7.0, 10 mM MgCl2, 3 mM MnCl2, 0.005% Tween-20 and 2 mM DTT. The compound plates and the white solid MB assay plates were purchased from Greiner Bio-one (Monroe, N.C.).
The binding of Eu-anti-phospho-peptide antibody to the phosphorylated Ulight peptide substrate bring both Eu donor and Ulight acceptor dye into close proximity. Upon excitation at 320-340 nm, the emission energy from Eu donor is transferred to Ulight acceptor dye that will generate light at 665 nm. The intensity light emission is proportional to the level of the peptide phosphorylation by ALKs. The assay was optimized and performed in 1536 plate (Table 1). Briefly, the ALKs enzymatic assay was initiated by dispense 2.5 ul enzyme with a final concentration at 10 nM prepared in 1× kinase reaction buffer. The assay plate was then added with compounds with the Pintool station (23 nl/well compound dilutions in DMSO solution) that was followed by incubation at room temperature for 10 minutes. Then 2.5 ul/well substrate was added in which 50 nM peptide substrate mixed with 10 uM, 100 uM or 1 mM ATP (final concentration). The assay plate was incubated at room temperature for 60 minutes and the kinase reaction was stopped by addition of 5 ul/well of 4 nM Eu-anti-phospho-peptide antibody with 12 mM EDTA prepared in 1× detection buffer. The assay plate was measured in an EnVision plate reader (Perkin Elmer) in the TR-FRET detection mode (excitation at 340 nm and emission at 665 nm).

SMILES: Cc1cc(-c2cnn3cc(N4CCC(N5CCN(C)CC5)CC4)cnc23)c2ccccc2n1 [Compound 8]
- IC50 (ALK2 [1]): 5 nM
- IC50 (ALK2 [2]): 54.3 nM
- ALK2 Span (ALK2 [2]): 109.4

SMILES: Cc1cc(-c2cnn3cc(N4CCC(N5CCOCC5)CC4)cnc23)c2ccccc2n1 [Compound 11]
- IC50 (ALK2 [1]): 54 nM
- IC50 (ALK2 [2]): 111 nM
- ALK2 Span (ALK2 [2]): ~117.5

SMILES: COc1cc2c(-c3cnn4cc(N5CCC(N6CCN(C)CC6)CC5)cnc34)ccnc2cc1F [Compound 15, 7-fluoro-6-methoxy-4-(6-(4-(4-methylpiperazin-1-yl)piperidin-1-yl)pyrazolo[1,5-a]pyrimidin-3-yl)quinoline]
- IC50 (ALK2 [1]): 19 nM
- IC50 (ALK2 [2]): 102 nM
- ALK2 Span (ALK2 [2]): ~117.8

SMILES: Cc1cc(-c2cnn3cc(N4CCC(N5CCNCC5)CC4)cnc23)c2ccccc2n1 [Compound 34]
- IC50 (ALK2 [1]): 37 nM
- IC50 (ALK2 [2]): 178 nM
- ALK2 Span (ALK2 [2]): ~117.8

SMILES: c1ccc2c(-c3cnn4cc(-c5ccc(N6CCNCC6)cc5)cnc34)ccnc2c1 [TRND00262637-13]
- activity in ALK2 in the presence of 10, 100, or 1,000 uM ATP (ALK2 [2]; FIG. 3, ATP 10 uM versus 100 uM or 1 mM): activity reduced in the higher ATP concentrations
